The record followed here is patent US9090599B2, “Heteroarylmethyl amides” (Hoffman-La Roche Inc., priority 2010, dated 2015).

Assay [1] addresses T1, human CB2 receptor (Homo sapiens, UniProt P34972).
T1 construct: expressed in transfected cells; host or cells: human embryonic kidney (HEK) cells, Semliki Forest Virus system, membrane preparations
Description: CB2 receptor affinity, [3H]-CP-55,940 displacement, HEK cell membranes. Format: binding. The conditions noted are these: 10 μM compound, radioligand [3H]-CP-55,940. A digest of the protocol: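 Membranes from HEK cells transiently expressing human CB2 (Semliki Forest Virus) incubated with [3H]-CP-55,940 ± compound at 10 μM. Bound ligand separated by glass-fibre filtration and counted by scintillation; reported as % inhibition at 10 μM.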

Assay [2] concerns the target T2, human CB1 receptor (Homo sapiens, UniProt P21554).
T2 construct: expressed in transfected cells; host or cells: human embryonic kidney (HEK) cells, Semliki Forest Virus system, membrane preparations
Description: CB1 receptor affinity, [3H]-CP-55,940 displacement, HEK cell membranes. Format: binding. The following applies: read-out: CB1 receptor affinity [% inhibition @ 10 μM]. A digest of the protocol:
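Membranes from HEK cells transiently expressing human CB1 (Semliki Forest Virus system) incubated with [3H]-CP-55,940 with or without test compound. Bound and free ligand separated by glass-fibre filtration and bound radioactivity counted by scintillation. Compounds tested at 10 μM, values reported as % inhibition of radioligand binding.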

Assay [3] deals with ABCA1 protein. Description: Detection of upregulation of ABCA1 protein in THP-1 macrophage cells (ApoA-I binding, high content imaging). The conditions noted are these: 24 hrs with compound, AlexaFluor 647 ApoA-I binding, read-out: ABCA1 protein increasing efficacy EC50. It is filed as cell-based. The protocol:
The ability of compounds of the invention to increase the level of ABCA1 protein is determined in replicate cultures of THP-1 macrophage cells in 96-well microplates. Cells are plated at an initial density of 100,000 cells/well in 100 μl medium and differentiated to adherent macrophages with the addition of PMA (100 nM) for 68 hrs in 10% fetal bovine serum, 3 μl/L of b-mercaptoethanol, RPMI-1640 medium. Then, cells are incubated with RPMI-1640 medium containing 1% FCS, 25 μg/ml acetylated LDL, for 24 hours at 37°. Following incubation with acetylated LDL, cells are washed twice with 50 μl PBS and incubated with 100 μl of RPMI-1640 medium containing the compound of interest solubilized in DMSO for an additional 24 hrs. The final DMSO concentration in presence of cells is maintained at 0.5%. ApoA-I binding assay using High Content Image Analysis is initiated by replacing with fresh medium, RPMI without Phenol Red, 0.2% BSA containing AlexaFluor®647 labeled ApoA-I for 2 h/37° C./5% CO2. Then, cells are fixed with 4% Formaldehyde in PBS (15 min, RT). Following Nuclei are stained with Hoechst solution (3 μM PBS) and Cytoplasm with Cell Mask Blue (2 μg/ml PBS), 15 min, RT. Finally the stained cells are fixed with a second round of formaldehyde treatment. Fixed stained cells are washed and kept in PBS at 4° C. and can be read immediately until one month after preparation.
The Alexa Fluor 647-labeled Apolipoprotein A-I (20 nM) was prepared as follows: Human recombinant Apolipoprotein A-I (ApoA-I) was exchanged to a buffer of 0.02 M NaHCO3 at pH 8.2 on an NAP desalting column (GE Healthcare) and brought to a concentration to 40 μM (1.13 mg/ml) by adjustment with the same buffer. The ApoA-I was fluorescently labeled by incubation with Alexa Fluor carboxylic acid succimidyl ester. (Alexa Fluor 647, Invitrogen A-20006) at a 2:1 molar ratio (Alexa to ApoA-I) for 1 h under shaking at RT. The remaining unconjugated label was removed by buffer exchange to 0.02M NaHCO3 at pH 8.2.
Imaging and data collection were performed on an OPERA confocal microplate imaging reader using a 20× water immersion objective and UV360 or 405 laser to identify the cell nuclei and a 635 laser to identify the fluorescent ApoA-I. Eight fields of view are captured per well. Image capture and analysis was performed with the Acapella software. Background fluorescence detected in control wells without ApoA-I was subtracted.
Using XLfit3 program (ID Business Solutions Ltd. UK), the model 205 for Dose Response One Site is used to calculate the EC50 values. […] Preferably, the compounds of the present invention have EC50 values in a range of 0.1 μM to 3 μM.

[4] abbreviates: 10 μM compound, radioligand [3H]-CP-55,940.

As usually defined, the inhibition is the relative decrease from the control value, in per cent. Usually EC50 stands for the midpoint of the concentration-response curve.

Structures are written as SMILES. Like-named read-outs stand apart in the source and are kept apart here.

T2 sequence (P21554 whole entry): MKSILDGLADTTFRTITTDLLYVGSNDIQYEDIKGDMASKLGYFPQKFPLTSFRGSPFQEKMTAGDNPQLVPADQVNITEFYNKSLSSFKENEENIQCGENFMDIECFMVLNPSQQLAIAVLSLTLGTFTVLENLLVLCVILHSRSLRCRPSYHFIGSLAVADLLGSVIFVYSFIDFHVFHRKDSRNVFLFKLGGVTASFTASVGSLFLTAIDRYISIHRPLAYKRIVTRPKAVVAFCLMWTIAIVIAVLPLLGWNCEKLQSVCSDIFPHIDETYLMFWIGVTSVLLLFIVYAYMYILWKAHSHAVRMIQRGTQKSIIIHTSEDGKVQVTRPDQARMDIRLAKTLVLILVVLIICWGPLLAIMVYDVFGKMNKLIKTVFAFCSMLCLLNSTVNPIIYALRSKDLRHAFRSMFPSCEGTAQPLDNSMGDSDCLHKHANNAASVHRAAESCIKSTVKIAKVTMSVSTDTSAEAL
T1 sequence (P34972 whole entry): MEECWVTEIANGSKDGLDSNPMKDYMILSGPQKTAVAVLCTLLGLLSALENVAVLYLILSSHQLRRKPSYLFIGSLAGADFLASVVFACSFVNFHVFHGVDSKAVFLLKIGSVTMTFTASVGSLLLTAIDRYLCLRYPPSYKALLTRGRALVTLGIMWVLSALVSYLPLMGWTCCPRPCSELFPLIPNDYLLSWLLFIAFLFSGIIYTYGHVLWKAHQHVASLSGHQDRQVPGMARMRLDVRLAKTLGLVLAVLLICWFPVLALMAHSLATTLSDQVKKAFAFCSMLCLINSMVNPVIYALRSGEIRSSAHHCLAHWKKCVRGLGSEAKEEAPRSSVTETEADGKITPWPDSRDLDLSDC

Take `O=C(NCc1nc(C(F)(F)F)no1)c1cnc(OCC(F)(F)F)c(-c2ccc3nonc3c2)c1` [Example 100, 5-Benzo[1,2,5]oxadiazol-5-yl-6-(2,2,2-trifluoro-ethoxy)-N-(3-trifluoromethyl-[1,2,4]oxadiazol-5-yl-methyl)-nicotinamide]: the inhibition at 10 µM in assay [1] stood at 8%; in assay [2] (setting [4]), 15%. Moreover, in assay [3], the 50% effective concentration (EC50) amounted to 580 nM.
For `O=C(NCc1cc(C2CC2)on1)c1cc(-c2ccc(Cl)cc2)c(OCC(F)(F)F)cn1` [Example 28, 4-(4-chlorophenyl)-N-((5-cyclopropylisoxazol-3-yl)methyl)-5-(2,2,2-trifluoroethoxy)picolinamide], the inhibition at 10 µM in assay [1] was 29%; in assay [2] (setting [4]), 42%. Further, the EC50 in assay [3] was 870 nM.
As for `O=C(NCc1noc(C(F)(F)F)n1)c1cnc(OCC(F)(F)F)c(-c2ccc(Cl)cc2)c1` [Example 12, 5-(4-chloro-phenyl)-6-(2,2,2-trifluoro-ethoxy)-N-(5-trifluoromethyl-[1,2,4]oxadiazol-3-ylmethyl)-nicotinamide], the inhibition at 10 µM in assay [1] is -4%; in assay [2] (setting [4]), 43%. The EC50 in assay [3] turned out to be 1180 nM.
For the compound `COc1cc(CNC(=O)c2cnc(O[C@@H](C)C(F)(F)F)c(-c3ccc(Cl)cc3)n2)on1` [Example 29, (S)-6-(4-chlorophenyl)-N-((3-methoxyisoxazol-5-yl)methyl)-5-(1,1,1-trifluoropropan-2-yloxy)pyrazine-2-carboxamide], the values for the inhibition at 10 µM in assay [1] and in assay [2] (setting [4]) were 17% and 27%, respectively. The EC50 in assay [3] was found to be 1870 nM.
For `O=C(NCc1coc(C2CC2)n1)c1cc(-c2ccc(Cl)cc2)c(OCC(F)(F)F)cn1` [Example 70, 4-(4-chlorophenyl)-N-((2-cyclopropyloxazol-4-yl)methyl)-5-(2,2,2-trifluoroethoxy)picolinamide] the same measures were 14%, 28% and 1560 nM.
Consider `CC(C)c1cc(CNC(=O)c2cnc(OCC(F)(F)F)c(-c3ccc(Cl)cc3)c2)no1` [Example 31, 5-(4-chlorophenyl)-N-((5-isopropylisoxazol-3-yl)methyl)-6-(2,2,2-trifluoroethoxy)nicotinamide], for which the inhibition at 10 µM stood at 11% in assay [1] and 47% in assay [2]. Also, the concentration giving a half-maximal response (EC50) in assay [3] is 530 nM.
